One may read the pIC50 as −log10 of the IC50, conventionally taken in molar units.

Two compounds from patent publication US20260226056A1, “SUBSTITUTED 1H-PYRAZOLE-4-CARBOXAMIDES AS SARM1 INHIBITORS” (DISARM THERAPEUTICS, INC., priority 2023, published 2026) can be followed below.

Each structure is given as a SMILES string. pIC50: −log10 of the molar value. Some results are limits rather than exact numbers.

This experiment has as its target T1, hSARM1 (Homo sapiens, UniProt Q6SZW1).
T1 construct: This assay makes use of full length SARM1, which encompasses the ARM, SAM and TIR domains; made in house; host or cells: NRK1-HEK293T cells (transient transfection; cleared lysate used as enzyme)
T1 sequence (Q6SZW1 28-724): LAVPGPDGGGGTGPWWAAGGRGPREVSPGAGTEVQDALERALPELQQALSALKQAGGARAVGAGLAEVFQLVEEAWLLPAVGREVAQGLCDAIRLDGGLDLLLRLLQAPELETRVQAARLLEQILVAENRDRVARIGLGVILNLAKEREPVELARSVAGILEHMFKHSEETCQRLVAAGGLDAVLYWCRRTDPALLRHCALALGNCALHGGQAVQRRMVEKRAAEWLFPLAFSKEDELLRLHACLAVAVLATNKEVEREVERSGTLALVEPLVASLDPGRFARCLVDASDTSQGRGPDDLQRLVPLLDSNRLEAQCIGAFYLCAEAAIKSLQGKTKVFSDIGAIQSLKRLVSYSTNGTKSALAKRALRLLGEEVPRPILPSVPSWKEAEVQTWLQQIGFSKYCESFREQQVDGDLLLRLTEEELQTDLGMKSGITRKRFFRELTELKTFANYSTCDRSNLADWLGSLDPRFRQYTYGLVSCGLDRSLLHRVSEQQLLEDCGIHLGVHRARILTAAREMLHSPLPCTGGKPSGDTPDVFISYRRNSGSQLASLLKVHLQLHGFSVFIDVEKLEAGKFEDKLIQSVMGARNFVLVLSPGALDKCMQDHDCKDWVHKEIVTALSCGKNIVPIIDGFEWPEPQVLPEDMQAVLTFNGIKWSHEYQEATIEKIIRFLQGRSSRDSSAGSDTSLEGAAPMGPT
Kind of experiment: ARM-SAM-TIR SARM1 IC50 Assay (NADase activity, NAD+ cleavage, RapidFire MS). In kind it is biochemical. The settings on record: ARM-SAM-TIR lysate 5 μg/mL, 2 hrs. pre-incubation with compound, 5 μM NAD+, 2 hrs. incubation. As to the method:
This describes an assay of ARM-SAM-TIR NADase activity and use of this assay to measure the efficacy of compounds of the present invention to block SARM1 mediated NAD+ cleavage. This assay was optimized in such a way as to characterize the efficacy of the compounds of the present invention to inhibit SARM1 activity and to calculate an IC50 value for each compound. This assay makes use of full length SARM1, which encompasses the ARM, SAM and TIR domains.
NRK1-HEK293T cells were seeded onto 150 cm^2 plates at 20×10^6 cells per plate. The next day, the cells were transfected with 15 μg ARM-SAM-TIR expression plasmid (SEQ ID NO: 1 as disclosed in WO 2019/236879, Pages 77-81; Paragraph) [0310]).
The cultures were supplemented with 1 mM NR at time of transfection to minimize toxicity from ARM-SAM-TIR overexpression. Forty-eight hours after transfection, cells were harvested, pelleted by centrifugation at 1,000 rpm (Sorvall ST 16R centrifuge, Thermo Fisher), and washed once with cold PBS (0.01 M phosphate buffered saline NaCl 0.138 M; KCl 0.0027 M; pH 7.4). The cells were resuspended in PBS with protease inhibitors (Complete™ protease inhibitor cocktail, Roche product #11873580001) and cell lysates were prepared by sonication (Branson Sonifer 450, output=3, 20 episodes of stroke). The lysates were centrifuged (12,000×g for 10 min at 4° C.) to remove cell debris and the supernatants (containing ARM-SAM-TIR protein) were stored at −80° C. for later use in the in vitro ARM-SAM-TIR NADase assay (see below). Protein concentration was determined by the Bicinchoninic (BCA) method and used to normalize lysate concentrations.
The enzymatic assay was performed in a 384-well polypropylene plate in Dulbecco's PBS buffer in a final assay volume of 20 μL. ARM-SAM-TIR lysate with a final concentration of 5 μg/mL was pre-incubated with the respective compound at 1% DMSO final assay concentration over 2 hrs. at room temperature. The reaction was initiated by addition of 5 μM final assay concentration of NAD+ as substrate. After a 2 hrs. ambient temperature incubation, the reaction was terminated with 40 μL of stop solution of 7.5% trichloroacetic acid in acetonitrile. The NAD+ and ADPR concentrations were analyzed by a RapidFire High Throughput Mass Spectrometry System (Agilent Technologies, Santa Clara, CA) using an API4000 triple quadrupole mass spectrometer (AB Sciex Framingham, MA).
Compounds having an activity designated as “A” provided an IC50<50 nM; compounds having an activity designated as “B” provided an IC50 51-100 nM; compounds having an activity designated as “C” provided an IC50 101-500 nM; compounds having an activity designated as “D” provided an IC50 501-1000 nM; compounds having an activity designated as “E” provided an IC50>1000 nM.

With `O=C(CCc1ccc(F)nc1)Nc1[nH]nc2c1c(=O)[nH]c1cnccc12` [Example 2, 3-(6-Fluoropyridin-3-y1)-N-(4-oxo-4,5-dihydro-2H-pyrazolo[4,3-c][1,7]naphthyridin-3-yl)propanamide], the pIC50 is 6.30 to 7.00.
For `CNC(=O)c1c(-c2ccnnc2)n[nH]c1NC(=O)CCc1ccc(F)nc1` [Example 18, 5-(3-(6-Fluoropyridin-3-yl)propanamido)-N-methyl-3-(pyridazin-4-y1)-1H-pyrazole-4-carboxamide] the value was < 6.00.
